Measured values from patent US8829014B2, “Thiazole and thiophene analogues, and their use in treating autoimmune diseases and cancers” (Board of Supervisors of Louisiana State University and …, priority 2006, dated 2014).

Test system: carageenan-induced edema
Experiment: Carrageenan-induced rat paw edema test (anti-inflammatory activity)
Format: in vivo, Sprague-Dawley rats
Conditions: rat paw edema, 50 mg/kg, reading 3 hours after carrageenan, [(Control−Test)/Control]×100%; for inhibition in vivo at 50 mg/kg: Rattus norvegicus, po, 3 h, read-out: % Protection P
Protocol: Sprague-Dawley rats, male and female, 150-250 g will be used in an edema test. Rats will be deprived of food but not water for 18 hours prior to the experiment. The test compounds will be administered with a blunt-tipped needle orally, 50 mg/kg, as a suspension in 0.1% sodium CMC (carboxymethylcellulose) vehicle. Alternatively, the test compounds will be injected intravenously, subcutaneously, or intraperitoneally. One hour later, 0.1 ml of a 1% carrageenan solution in saline will be injected in the sub-plantar region of the right hind paw of each rat. […] The reading will be repeated 3 hours later. The displacement readings give a measure of carageenan-induced edema. Any reduction in carageenan-induced edema with a test compound, as compared to saline control, is a measure of the anti-inflammatory activity of the test compound. The percentage protection at 50-mg/kg doses was calculated according to the following formula: % Protection=[(Control−Test)/Control]×100%.
Following treatment, the media from the VSMC and HUVEC incubations were removed, and the amount of lactate dehydrogenase (LDH) released into the medium was determined with a commercial kit and expressed as a % increase over vehicle-treated cells. HPT toxicity was determined by the ethidium homodimer (EthHD) uptake assay. […] The lead compounds were also tested in two pairs of cell lines from the skin or prostate, one tumorigenic and one non-tumorigenic, to test for differing toxicity or heightened sensitivity in the tumorigenic lines. The cells were treated for 48 h with vehicle (0.1% DMSO) or 10 μM of each drug candidate, and the viability of the cells was determined by the MTT assay, expressed as a % decrease in viability compared to vehicle-treated cells. The in vivo inflammation model measured the % inhibition of rat paw edema induced by carageenan injection.

| Molecule | % Protection P [%] | inhibition in vivo at 50 mg/kg [%] |
| --- | --- | --- |
| 4-[3-Phenyl-5-(4,5,6-trimethoxy-pyridine-2-yl)-thiophen-2-yl]-morpholine [Example 39] | 19.65 | – |
| 4-{3-(4-Chloro-phenyl)-5-[5-methyl-4-(2,2,2-trifluoro-ethoxy)-pyridin-2-yl]-thiophen-2-yl}-morpholine [Example 77] | 23 | – |
| 4-{5-[5-Methyl5-(2,2,2-trifluoro-ethoxy)-pyridin-2-yl]-3-pyridin-4-yl-thiphen-2-yl}-morpholine [Example 101] | 47 | – |
| 4-{5-[5-Methyl-5-(2,2,2-trifluoro-ethoxy)-pyridin-2-yl]-3-pyridin-3-yl-thiphen-2-yl}-morpholine [Example 89] | −18.05 | – |
| CCN(CC)C(/C=N/C(=S)NC(=O)c1ccccc1)c1ccccc1 (stereo not drawn) [Example 38, 1-Benzoyl-3-[1-diethylamino-1-phenyl-eth-(E)-ylidene]-thiourea] | – | 10.9 |
| O=C(c1ccccc1)c1cc(-c2ccccc2)c(N2CCOCC2)s1 [Example 42, (5-Morpholin-4-yl-4-phenyl-thiophen-2-yl)-phenyl-methanone] | – | 53.5 |
| O=C(c1ccc(Cl)cc1)c1cc(-c2ccccc2)c(N2CCOCC2)s1 [Example 45, (4-Chloro-phenyl)-(5-morpholin-4-yl-4-phenyl-thiophene-2-yl)-methanone] | – | 53.5 |
| O=C(c1cc(-c2ccccc2)c(N2CCOCC2)s1)c1ccc(Cl)cc1Cl [Example 46, (2,4-Dichloro-phenyl)-(5-morpholin-4-yl-4-phenyl-thiophene-2-yl)-methanone] | – | 68.3 |
| CS(=O)(=O)c1ccc(C(=O)c2cc(-c3ccccc3)c(N3CCOCC3)s2)cc1 [Example 48, (4-Methylsulfonyl-phenyl)-(5-morpholin-4-yl-4-phenyl-thiophene-2-yl)-methanone] | – | 30 |
| O=C(c1cccnc1)c1cc(-c2ccccc2)c(N2CCOCC2)s1 [Example 50, (5-Morpholin-4-yl-4-phenyl-thiophene-2-yl)-pyridine-3-yl-methanone] | – | 6.9 |
| CS(=O)(=O)c1ccc(-c2cc(C(=O)c3ccccc3)sc2N2CCOCC2)cc1 [Example 54, [4-(4-Methanesulfonyl-phenyl)-5-morpholin-4-yl-thiophene-2-yl]-phenyl-methanone] | – | 17.8 |
| Cc1ccc(C(=O)c2cc(-c3ccc(S(C)(=O)=O)cc3)c(N3CCOCC3)s2)cc1 [Example 55, [4-(4-Methanesulfonyl-phenyl)-5-morpholin-4-yl-thiophene-2-yl]-p-tolyl-methanone] | – | -13.5 |
| CS(=O)(=O)c1ccc(-c2cc(C(=O)c3ccc(Cl)cc3)sc2N2CCOCC2)cc1 [Example 57, (4-Chloro-phenyl)-[4-(4-methanesulfonyl-phenyl)-5-morpholin-4-yl-thiophen-2-yl]-methanone] | – | 26.9 |
| CS(=O)(=O)c1ccc(-c2cc(C(=O)c3ccc(Cl)cc3Cl)sc2N2CCOCC2)cc1 [Example 58, (2,4-Dichloro-phenyl)-[4-(4-methanesulfonyl-phenyl)-5-morpholin-4-yl-thiophen-2-yl]-methanone] | – | 50 |
| CSc1ccc(C(=O)c2cc(-c3ccc(S(C)(=O)=O)cc3)c(N3CCOCC3)s2)cc1 [Example 59, [4-(4-Methanesulfonyl-phenyl)-5-morpholin-4-yl-thiophene-2-yl]-(4-methylsulfanyl-phenyl)-methanone] | – | 45.8 |
| CS(=O)(=O)c1ccc(C(=O)c2cc(-c3ccc(S(C)(=O)=O)cc3)c(N3CCOCC3)s2)cc1 [Example 60, (4-Methanesulfonyl-phenyl)-[4-(4-methansulfonyl-phenyl)5-morpholin-4-yl-thiophene-2-yl]-methanone] | – | 59.9 |
| CC(=O)Nc1ccc(C(=O)c2cc(-c3ccc(S(C)(=O)=O)cc3)c(N3CCOCC3)s2)cc1 [Example 61, N-{4-[4-(4-Methansulfonyl-phenyl)-5-morpholin-4-yl-thiophene-2carbonyl]-phenyl}-acetamide] | – | 25 |
| CS(=O)(=O)c1ccc(-c2cc(C(=O)c3cccnc3)sc2N2CCOCC2)cc1 [Example 62, [4-(4-Methanesulfonyl-phenyl)-5-morpholin-4-yl-thiophene-2-yl]-pyridin-3-yl-methanone] | – | 0 |

| Molecule | % Protection P [%] | inhibition in vivo at 50 mg/kg [%] |
| --- | --- | --- |
| CC(=O)Nc1ccc(-c2cc(C(=O)c3cc(OCC(F)(F)F)c(C)cn3)sc2N2CCOCC2)cc1 [Example 65, N(4-{5-[5-Methyl-4-(2,2,2-trifluoro-ethoxy)-pyridine-2-carbonyl]-2-morpholin-4-yl-thiophen-3-yl}-phenyl)-acetamide] | 30 | – |
| CC(=O)Nc1ccc(-c2cc(C(=O)c3ccc(C)cc3)sc2N2CCOCC2)cc1 [Example 67, N-{4-[5-(4-Methyl-benzoyl)-2-morpholin-4-yl-thiophene-3-yl]-phenyl}-acetamide] | – | 7.67 |
| COc1ccc(C(=O)c2cc(-c3ccc(NC(C)=O)cc3)c(N3CCOCC3)s2)cc1 [Example 68, N-{4-[5-(4-Methoxy-benzoyl)-2-morpholin-4-yl-thiophene-3-yl]-phenyl}-acetamide] | – | 40 |
| CC(=O)Nc1ccc(-c2cc(C(=O)c3ccc(Cl)cc3)sc2N2CCOCC2)cc1 [Example 69, N-{4-[5-(4-Chloro-benzoyl)-2-morpholin-4-yl-thiophene-3-yl]-phenyl}-acetamide] | – | -21.8 |
| CC(=O)Nc1ccc(-c2cc(C(=O)c3ccc(S(C)(=O)=O)cc3)sc2N2CCOCC2)cc1 [Example 72, N-{4-[5-(4-Methansulfonyl-benzoyl)-2-morpholin-4-yl-thiophene-3-yl]-phenyl}-acetamide] | – | 50 |
| CC(=O)Nc1ccc(-c2cc(C(=O)c3cccnc3)sc2N2CCOCC2)cc1 [Example 74, N-{4-[2-Morpholin-4-yl-5-(pyridine-3-carbonyl)-thiophene-3-yl]-phenyl}-acetamide] | – | 34 |
| O=C(c1ccccc1)c1cc(-c2ccc(Cl)cc2)c(N2CCOCC2)s1 [Example 78, [4-(4-Chloro-phenyl)-5-morpholin-4-yl-thiophen-2-yl]-phenyl-methanone] | – | -48.3 |
| Cc1ccc(C(=O)c2cc(-c3ccc(Cl)cc3)c(N3CCOCC3)s2)cc1 [Example 79, [4-(4-Chloro-phenyl)-5-morpholin-4-yl-thiophen-2-yl]-p-tolyl-methanone] | – | -31 |
| O=C(c1ccc(Cl)cc1)c1cc(-c2ccc(Cl)cc2)c(N2CCOCC2)s1 [Example 81, (4-Chloro-phenyl)-[4-(4-chloro-phenyl)-5-morpholin-4-yl-thiophen-2-yl]-methanone] | – | 20 |
| CSc1ccc(C(=O)c2cc(-c3ccc(Cl)cc3)c(N3CCOCC3)s2)cc1 [Example 83, [4-(4-Chloro-phenyl)-5-morpholin-4-yl-thiophen-2-yl]-(4-methansulfanyl-phenyl)-methanone] | 27 | – |
| O=C(c1ccncc1)c1cc(-c2ccc(Cl)cc2)c(N2CCOCC2)s1 [Example 87, [4-(4-Chloro-phenyl)-5-morpholin-4-yl-thiophen-2-yl]-pyridin-4-yl-methanone] | – | 35 |
| COc1c(C)cc(-c2cc(-c3cccnc3)c(N3CCOCC3)s2)nc1C [Example 88, 4-[5-(5-Methoxy-4,6-dimethyl-pyridin-2-yl)-3-pyridin-3-yl-thiophen-2-yl]-morpholine] | – | -18.1 |
| COc1ccc(C(=O)c2cc(-c3cccnc3)c(N3CCOCC3)s2)cc1 [Example 92, (4-Methoxy-phenyl)-(5-morpholin-4-yl-4-pyridin-3-yl-thiophen-2-yl)methanone] | – | 69 |
| O=C(c1ccc(Cl)cc1)c1cc(-c2cccnc2)c(N2CCOCC2)s1 [Example 93, (4-Chloro-phenyl)-(5-morpholin-4-yl-4-pyridin-3-yl-thiophen-2-yl)-methanone] | – | 0 |
| O=C(c1cc(-c2cccnc2)c(N2CCOCC2)s1)c1ccc(Cl)cc1Cl [Example 94, (2,4-Dichloro-phenyl)-(5-morpholin-4-yl-4-pyridin-3-yl-thiophen-2-yl)-methanone] | – | -51.4 |
| CC(=O)Nc1ccc(C(=O)c2cc(-c3cccnc3)c(N3CCOCC3)s2)cc1 [Example 97, N-[4-(5-Morpholin-4-yl-4-pyridin-3-yl-thiophen-2-carbonyl)-phenyl]-acetamide] | – | 46.8 |
| O=C(c1cccnc1)c1cc(-c2cccnc2)c(N2CCOCC2)s1 [Example 98, (5-Morpholin-4-yl-4-pyridin-3-yl-thiophen-2-yl)-pyridin-3-yl-methanone] | – | 42 |
| O=C(c1ccncc1)c1cc(-c2cccnc2)c(N2CCOCC2)s1 [Example 99, (5-Morpholin-4-yl-4-pyridin-3-yl-thiophen-2-yl)-pyridin-4-yl-methanone] | – | 26 |
